Structures can show the parent of a compound that is named as a salt. Where two headings read alike, the source gives them in different places.
What was measured:
[1] = test system: Myotubes from the healthy donor 3; test: Atrophy Rescue assay (MyoScreen) with atrophy inducers; type: cell-based, Human; design: key: +++: total rescue; ++: partial rescue; +: low rescue; conditions: tranylcypromine 1 μM; for atrophy rescue, IL-1: inducer IL-1β 25 ng/mL; for atrophy rescue, TGF-β: inducer TGF-β 0.5 ng/mL; for atrophy rescue, TNF-alpha: inducer TNF-α 2 ng/mL; for atrophy rescue, dexamethasone: inducer dexamethasone 100 μM; for atrophy rescue, Myostatin: inducer myostatin 150 ng/mL
Method: (§1) Hypertrophy and Atrophy Rescue assays were performed using an in vitro fully automated human myotube model called MyoScreen™ (Cytoo, France). This model relies on a tight control of the microenvironment that guides the differentiation of human primary myoblasts. Myotubes formed on MyoScreen™ micropatterns present a high level of maturation together with a highly standardized morphology.
(§2) Human primary myoblasts from donors were seeded in MyoScreen™ micropatterned 96-well plates (Cytoo, France), let them adhere for 24 h in growth medium, then run the differentiation in a low horse serum medium for at least 5 days.
(§3) At Day 0, MyoScreen™ plates (Cytoo, France) containing micropatterns were pre-filled with 200 μl/well of growth medium and stored in the incubator at 37° C. Human primary myoblasts were detached from the flasks, count, and seeded into the plates with 15 000 cells per well in 100 μl of growth medium.
(§4) At Day 1, the growth medium was changed for a differentiation medium, 300 μ/well (DMEM with 0.1% horse serum) in which myoblasts started differentiating and forming myotubes.
(§5) At Day 2, the differentiation medium was changed. Then candidate compounds were diluted with differentiation medium and transferred into the plate. The final concentration of DMSO should be not higher than 0.1%. At least 6 wells were treated with the vehicle as a basal control, and 6 wells were treated with IGF-1 at 100 ng/ml as positive hypertrophy control.
For Atrophy Rescue assay, one hour after candidate compound addition, atrophy inducers were added at the following final concentration: 150 ng/mL of myostatin, 25 ng/mL of IL-1β, 2 ng/mL of TNF-α, 0.5 ng/mL of TGF-β and 100 μM of dexamethasone.
(§6) At Day 6, cells were fixed with formalin 5% for 30 min at room temperature, then permeabilized with Triton X-100 at 0.1% in PBS for 15 min, and blocked with PBS+BSA 1% for 20 minutes. Myotubes were incubated with first antibody against Troponin T in blocking buffer for 1 h30, washed three times with PBS, incubated with secondary antibody and Hoescht ( 1/10000) for 1 h30, and washed three times with PBS.
Atrophy Rescue assays were performed in triplicate in the presence of atrophy inducers, i.e. TNF-α, IL-1β, Myostatin, TGF-β and dexamethasone, and at 1 μM tranylcypromine.
Atrophy rescue assays was performed for tranylcypromine. Myotubes from the healthy donor 3 were atrophied using different inducers: TNF-α, IL-1β, Myostatin, TGF-β and dexamethasone. The ability of tranylcypromine to block the atrophy induced by these different atrophy inducers was determined.

Human primary myoblasts [2] = test: Hypertrophy assay (MyoScreen human myotube model): primary screening, retest, dose response; type: cell-based
Method: Healthy donor primary skeletal cells (Donor 1 and Donor 3) were Clonetics™ Human Skeletal Muscle Myoblasts (HSMM).
as §1, §2, §3, §4, §5, §6
Images were acquired at 10× magnification with an Operetta High Content Imaging System. Image processing and analysis were performed with dedicated algorithms developed on the Acapella High Content Imaging Software (Perkin Elmer) by CYTOO. Eleven fields per well were acquired.
First, segmentation of myotubes and nuclei were done using respectively the Troponin T staining intensity and the Hoechst staining. […] The threshold of segmentation was set-up in order to avoid detecting the background noise and eliminate aberrant small myotube structures.
Then, an image clean-up step was performed on the Troponin T images in order to remove myotubes that touch the border of the image. The final valid myotubes were used to extract myotube morphology parameters including the myotube width and area, and the number of nuclei per myotube.
Nuclei Count, Fusion Index, Mean myotube Area and Number of nuclei per myotube have been validated as relevant and sensitive readouts of myotube differentiation as well as atrophic and hypertrophic induction.
A primary screening was run to identify hypertrophy compounds that increase the myotube differentiation and size. Candidate compounds were tested at 10 μM in monoplicate on Donor 3 cells.
A retest was run, by cherry picking (same compound batch as primary screening): each hit was tested in the same conditions as in the Primary Screening (Donor 3, 10 μM) in six well replicates.
Dose response assays were performed on two healthy donors (Donors 3 and 1): 8 doses of candidate compounds between 33 μM and 0.015 μM, 2 well replicates per dose.

Human primary myoblasts [3] = test: as above; type: cell-based; remark: listed apart in the source
MyoScreen myotubes = test: Acetylcholine Receptor (AchR) Clustering Assay (MyoScreen); type: cell-based, Human; conditions: after 7 days of treatment
Method: The MyoScreen™ protocol was performed as described in the Hypertrophy and Atrophy rescue assay in example 1 but was stopped at Day 9 instead of Day 6. At the end of the assay, AchR were immunostained using a specific antibody in addition to Troponin T and nuclei. Images were acquired at ×20 with an Operetta High Content Imaging System from Perkin Elmer. Image processing and analyses were performed with a dedicated algorithm developed on the Acapella High Content Imaging Software (Perkin Elmer). Specific readouts were calculated in each well: nuclei count and myotube fusion index, number of AchR, AchR mean area, AchR total area normalized by the myotube total area.
Remarkably, when labeled with a specific anti-AChR antibody, MyoScreen myotubes at 6 days post-differentiation display AChR clusters punctuated along the sarcolemma membrane in the middle of the myotube fiber and in distinct regions at the ends of myotubes. To develop an automated AChR cluster assay, an AChR detection routine was developed that was sensitive and robust enough to analyze aggregate number and size clusters in images using the Operetta/Acapella system (see Materials and Methods).

[4] = Donor 1, first dose response assay (0.015-33 μM)
[5] = Donor 3, first dose response assay (0.015-33 μM)
[6] = Homo sapiens, Myoblast, Donor 3, second dose response assay
[7] = Donor 3, second dose response assay, lower concentrations
[8] = Donor 3, Example 2 dose response
[9] = Donor 5, Example 2 dose response
[10] = Donor 7, compounds at 1 μM (IGF-1 positive control)

Row | Compound | atrophy rescue, IL-1 [1] | atrophy rescue, TGF-β [1] | atrophy rescue, TNF-alpha [1] | atrophy rescue, dexamethasone [1] | atrophy rescue, Myostatin [1] | % Activity (Human primary myoblasts [2]; [4]) [%] | % Activity (Human primary myoblasts [2]; [5]) [%] | EC50 (Human primary myoblasts [2]; [6]) [nM] | % Activity (Human primary myoblasts [3]; [7]) [%] | % Activity (Human primary myoblasts [2]; [8]) [%] | % Activity (Human primary myoblasts [3]; [9]) [%] | % Activity (Human primary myoblasts [3]; [10]) | further results
1 | N[C@H]1C[C@@H]1c1ccccc1 (relative stereo) [Tranylcypromine, trans-2-phenylcyclopropan-1-amine] | +++ | + | + | ++ | +++ | 138 | 127 | 50 | 135 |  |  |  | EC50 (Human primary myoblasts [3]; Homo sapiens, Myoblast, Donor 1, first dose response assay): < 300 nM; activity at 10 µM (Human primary myoblasts [3]; Homo sapiens, Myoblast, Donor 3, compounds 10 μM, monoplicate (IGF-1 control 100 ng/ml), Myotube fusion index (compound)*100/basal control, read-out: Primary screening (% Activity)): 176%; activity at 10 µM (Human primary myoblasts [3]; Homo sapiens, Myoblast, Donor 3, compounds 10 μM, six well replicates (IGF-1 control 100 ng/ml), Myotube fusion index (compound)*100/basal control, read-out: Retest (% Activity)): 136%; EC50 (Human primary myoblasts [3]; Homo sapiens, Myoblast, Donor 3, first dose response assay): < 30 nM; increase in the fusion index or/and myotube area readouts (Human primary myoblasts [3]; primary screening and retest, Donor 3, 10 μM): > 30%
2 | IGF-1: insulin-like growth factor I, positive hypertrophy control at 100 ng/ml | +++ | ++ | +++ | +++ | +++ | 150 | 150 |  | 150 | 190 | 145 | 119% | Primary screening (% Activity) (Human primary myoblasts [2]; Donor 3, compounds 10 μM, monoplicate (IGF-1 control 100 ng/ml), Myotube fusion index (compound)*100/basal control): 210%; Retest (% Activity) (Human primary myoblasts [3]; Donor 3, compounds 10 μM, six well replicates (IGF-1 control 100 ng/ml), Myotube fusion index (compound)*100/basal control): 190%; % Activity (Human primary myoblasts [3]; Donor C1, compound at 1 μM (IGF-1 positive control)): 124%; % Activity (Human primary myoblasts [3]; Donor C13, compound at 1 μM (IGF-1 positive control)): 141%
3 | c1ccc(C2C[C@H]2NC2CCNCC2)cc1 (stereo partly drawn) [GSK LSD1] |  |  |  |  |  |  |  | 0.1 | 145 |  | 146 |  | increase of AchR cluster total area (normalized by total myotube area) (MyoScreen myotubes; Donor 3): 50%; increase of AchR cluster total area (normalized by total myotube area) (MyoScreen myotubes; Donor 5): 260%; EC50 (Human primary myoblasts [3]; Homo sapiens, Myoblast, Donor 5, Example 2 dose response): 0.012 nM; activity at 1 µM (Human primary myoblasts [3]; Homo sapiens, Myoblast, Donor 7, compounds at 1 μM (IGF-1 positive control)): 120%; activity at 1 µM (Human primary myoblasts [3]; Homo sapiens, Myoblast, Donor C1, compound at 1 μM (IGF-1 positive control)): 154%; activity at 1 µM (Human primary myoblasts [3]; Homo sapiens, Myoblast, Donor C13, compound at 1 μM (IGF-1 positive control)): 123%
4 | Cl.Cl.NNCCc1ccc(NC(=O)CCCc2ccccc2)cc1 [Bizine] |  |  |  |  |  |  |  |  |  | 120 | 119 | 116% at 1 μM | EC50 (Human primary myoblasts [2]; [8]): < 350 nM; EC50 (Human primary myoblasts [3]; [9]): 87 nM
5 | CN1CCN(C(=O)CN[C@H]2C[C@@H]2c2ccc(OCc3ccccc3)cc2)CC1 [RN 1 dihydrochloride] |  |  |  |  |  |  |  | 0.1 | 135 |  |  |  | 

Reference: patent publication US11382872B2, “LSD1 inhibitors as skeletal muscle hypertrophy inducers” (CYTOO, priority 2016, dated 2022)
